Laboratory results reported in patent EP2198878A1, “Polypeptide bombesin antagonists” (University Of Miami, priority 2008, dated 2010).
Peptide text beside a SMILES is read from it. * marks the point of attachment. Leuψ(CH2N)ThzNH2 = CC(C)C[C@@H](CN1CSC[C@H]1C(N)=O)N*; Hydrocinnamoyl = O=C(CCc1ccccc1)*

Test system: Human SK-Hep-1 cancers
Assay: SK-Hep-1 human hepatocellular carcinoma xenograft in nude mice
Assay type: in vivo, mouse
Details: at therapeutic doses
Protocol: Human SK-Hep-1 cancers were transplanted sc. into both flank areas of female nude mice. The treatment started 47 days after transplantation as follows: Group 1: Control; Group 2: Peptide 14, 20 µg/day;. There were 8 animals in each group. The substances were dissolved in 0.1% dimethyl sulfoxide (DMSO) and diluted with 10% propylene glycol in water. Amounts of 0.1 ml of the solutions were injected once daily sc. The controls received vehicle only. Tumors and body weights were measured weekly and tumor volume was calculated. The experiment was terminated on day 135.

**Q.** `CC(C)C[C@@H](CN1CSC[C@H]1C(N)=O)NC(=O)[C@H](Cc1c[nH]cn1)NC(=O)CNC(=O)[C@@H](NC(=O)[C@H](C)NC(=O)[C@H](Cc1c[nH]c2ccccc12)NC(=O)[C@H](CCC(N)=O)NC(=O)CCc1ccccc1)C(C)C` [Peptide 14, Hca-Gln-Trp-Ala-Val-Gly-His-Leu-ψ-Tac-NH2] (Hydrocinnamoyl-QWAVGH-{Leuψ(CH2N)ThzNH2}) was tested. Which toxic effects did it give?
**A.** no toxic effects
